Laboratory results reported in patent US10202346B2, “Phenol derivatives and the pharmaceutical or cosmetic use thereof” (Galderma Research & Development, priority 2009, dated 2019).

Key:
receptors of AR type = target: T1, receptors of AR type (Homo sapiens, UniProt P10275); assay: AR transactivation test in PALM (PC3 Androgen receptor Luciferase MMTV) cell line; type: cell-based; settings: cross curves against reference agonist methyltrienolone, read-out: Kdapp (apparent dissociation constant)
T1 construct: expressed in transfected cells; host or cells: PALM cells (PC3 stably transfected with PMMTV-neo-Luc and pSG5puro-AR)
T1 sequence (P10275 1-920): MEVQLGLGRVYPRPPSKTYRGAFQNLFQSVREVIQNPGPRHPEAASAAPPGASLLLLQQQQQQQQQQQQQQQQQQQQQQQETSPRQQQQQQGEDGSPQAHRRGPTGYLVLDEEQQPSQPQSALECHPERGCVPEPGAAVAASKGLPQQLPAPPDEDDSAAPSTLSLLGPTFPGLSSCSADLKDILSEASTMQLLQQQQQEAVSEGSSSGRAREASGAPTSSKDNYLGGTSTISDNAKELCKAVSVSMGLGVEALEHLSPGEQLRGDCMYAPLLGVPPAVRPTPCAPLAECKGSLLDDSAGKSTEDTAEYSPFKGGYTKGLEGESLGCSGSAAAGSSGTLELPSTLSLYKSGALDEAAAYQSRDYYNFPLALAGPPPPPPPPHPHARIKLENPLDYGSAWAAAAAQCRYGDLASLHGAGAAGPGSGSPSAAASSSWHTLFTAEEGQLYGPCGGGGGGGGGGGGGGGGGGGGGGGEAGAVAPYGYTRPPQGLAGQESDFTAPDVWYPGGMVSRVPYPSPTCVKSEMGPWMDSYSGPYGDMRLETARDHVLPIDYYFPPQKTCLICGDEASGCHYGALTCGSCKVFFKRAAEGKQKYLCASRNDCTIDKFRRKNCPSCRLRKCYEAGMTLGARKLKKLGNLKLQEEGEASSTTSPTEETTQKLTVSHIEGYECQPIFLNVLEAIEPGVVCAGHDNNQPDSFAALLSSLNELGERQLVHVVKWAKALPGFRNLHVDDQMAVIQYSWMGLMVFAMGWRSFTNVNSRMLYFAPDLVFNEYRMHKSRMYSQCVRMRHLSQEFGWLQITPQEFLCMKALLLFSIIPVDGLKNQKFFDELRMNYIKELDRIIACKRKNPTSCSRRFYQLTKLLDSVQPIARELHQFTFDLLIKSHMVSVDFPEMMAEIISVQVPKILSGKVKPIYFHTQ
Procedure: The compounds according to the invention show inhibitory properties on receptors of AR type. This AR receptor-inhibiting activity is measured in a transactivation test through the KdR (resting), KdA (active) and Kdapp (apparent) dissociation constants according to the method set out in J. Molecular Biology (1965), 12(1), 88-118, Monod J. of et al.
The transactivation test is carried out in the PALM (PC3 Androgen receptor Luciferase MMTV) cell line which is a stable transfectant containing the PMMTV-neo-Luc (reporter gene) and pSG5puro-AR plasmids.
In this study, the affinity of each product for the 2 receptor states (KdR and KdA) is determined, as is an apparent Kd (KdApp). This constant is a result of the 2 Kd, but also depends on the initial equilibrium of the receptor between the active state and the resting state (L0) and on its expression level. It is determined by means of the following formula: 1/KdApp=(L0/(1+L0))×(1/KdR)+(1/(1+L0))×(1/KdA)
To determine these constants, “cross curves” of the test product against a reference agonist, methyltrienolone, are produced in 96-well plates. The test product is used at 10 concentrations and the reference agonist at 7 concentrations, […]

Row | Structure (SMILES) | Kd (receptors of AR type) [nM] | melting point [°C]
1 | COc1cc(NCc2ccccc2O)ccn1 [Example 5, 2-[(2-Methoxypyridin-4-ylamino)methyl]phenol] | 50 | 
2 | COc1cc(NCc2ccccc2O)cc(Br)n1 [Example 1, 2-[(2-Bromo-6-methoxypyridin-4-ylamino)methyl]phenol] | 20 | 137
3 | Oc1ccccc1CNc1ccnc(Cl)c1 [Example 2, 2-[(2-Chloropyridin-4-ylamino)methyl]phenol] | 4 | 
4 | Oc1ccc(F)cc1CNc1ccnc(Br)c1 [Example 4, 2-[(2-Bromopyridin-4-ylamino)methyl]-4-fluorophenol] | 20 | 
